# Assay results as given in paper PMC10601079 (ACS Omega, 2023).
# Tested on: ACS
# Assay: coupled spectrophotometric assay of AMP formation
# Assay type: biochemical, Gordonia sp. NB4-1Y
# Conditions: 2.5 mM ATP, 1.5 mM CoA, 5 mM MgCl2, 1 mM DTT, 50 mM potassium phosphate pH 7.5, 25 °C
row,Km,Structure (SMILES)
1,12.5 ± 0.7 mM,"O=C(O)CCCC(F)(F)F [1:4 FTCA, 5,5,5-trifluoropentanoic acid]"
2,78.3 ± 7.4 mM,CC(=O)O [acetate]
3,0.109 ± 0.011 mM,CCCCC(=O)O [pentanoic acid]
4,1.7 ± 0.2 mM,CCC(=O)O [propionic acid]
